Results: patent US12083082B2, “Methods for treating neurodegenerative disorders” (Alzheon, Inc., priority 2018, dated 2024)

Assays:
[1] = cited from earlier work
[2] = molecular target: T1, recombinant human Aβ42 peptide (Homo sapiens, UniProt P05067); assay: Ion mobility mass spectrometry (IMS MS) anti-Aβ42 oligomer activity / binding study; format: biochemical; parameters: key to Presence of Aβ42 Pentamer / Presence of Aβ42 Hexamer / Presence of Aβ42 Decamer / Presence of Aβ42 Dimer / Presence of Aβ42 Trimer / Presence of Aβ42 Tetramer: Y = yes, presence of oligomer species; N = no presence of oligomer species
T1 construct: recombinant human Aβ42 peptide; purchased BioLegend 843801
Method: The conditions used for mass spectrometry, using a Waters Synapt G2-S, were as follows: positive polarity in sensitivity mode, capillary=2.5 kV, nebulizer=2 mbar, source temperature=80° C., desolvation temperature=60° C., sample cone setting=35 V, source offset setting=60 V, and mass range=500 to 4000 m/z. These conditions were maintained throughout the study to ensure consistency of the data and to avoid influencing the detection of oligomers due to preferential ionization conditions.
Samples were directly infused into the mass spectrometer at a flow rate of 10 μL/min using a Protea PM-1000 Syringe Pump and Hamilton 1 mL Syringe. The data acquisition of the amyloid peptide was performed using a Waters Synapt G2-S quadrupole time of flight mass spectrometer (Q-TOF MS) with traveling wave ion mobility (Waters Corp., Milford, MA). The data were acquired using the systems sensitivity mode to allow for the detection of the less abundant oligomers. Samples were infused at room temperature. The IMS MS studies were conducted at Protea, Inc. (Morgantown, WV).
1 mg of recombinant human Aβ42 peptide from BioLegend (99% purity, cat #843801) was reconstituted in 200 μL of Fisher Optima LC/MS grade water (cat #W6-1) and vortexed vigorously for 2 minutes to solubilize the peptide creating a 5 mg/mL solution. Samples were then diluted to a final concentration of 22 pmol/μL prior to incubation. The sample mixtures were then incubated at room temperature for 0, 4 and 24 hours. After the acquisition of incubated samples was completed, the raw data were analyzed using the Waters MassLynx v2.4 suite with DriftScover v2.7 to visualize drift times for the peptide.
Aβ42 species characterization using IMS MS was performed by direct infusion at 22 pmol/μL in water. The peptide was prepared in water to maintain the native state conformation of the peptide and ion mobility data acquisition was performed to detect and characterize the conformational changes of the native state monomer and any oligomers that may have formed during the incubation.
The data acquisition for Aβ42 peptide was performed using a Waters Synapt G2-S quadrupole time of flight mass spectrometer (Q-TOF MS) with traveling wave ion mobility (Waters Corp., Milford, MA). The data were acquired using the systems sensitivity mode to allow for the detection of the less abundant oligomers. Samples were infused at room temperature as above.
1 mg of 3-SPA was reconstituted in 1 mL of Fisher Optima LC/MS grade water (cat #W6-1) and vortexed vigorously for 2 minutes until completely dissolved. The sample was then diluted to create […], and 22,000 pmol/μL solutions to perform a 100-fold, and 1,000-fold molar excess for the binding experiments with Aβ42 peptide.
1 mg of recombinant human Aβ42 peptide was reconstituted in 200 μL of Fisher Optima LC/MS grade water and vortexed vigorously to solubilize to a 5 mg/mL solution. Samples were then diluted to their final concentrations prior to incubation. The sample mixtures were incubated at room temperature for 0, 4 and 24 hours, followed by analysis as described above.
To address the high conformational flexibility of Aβ42 and to characterize its interaction with 3-SPA, we used ion mobility mass spectrometry (IMS), with a quadrupole time of flight mass spectrometer (Q-TOF MS) with traveling wave ion mobility. Resulting effect of modulation of Aβ conformational space is the prevention of oligomer formation. We have found not only concentration dependency but also time-dependency of this anti-Aβ42 oligomeric effect of 3-SPA as indicated in FIG. 3 and FIG. 4. 100- vs 1,000-fold molar excess of 3-SPA over Aβ42 results in a different sub-species profile of inhibition of Aβ42 oligomer formation. The activity is also compared with the same excess dependency of tramiprosate.

in vivo = conditions: rat, po
Source text: ALZ-801 is a valine conjugate of tramiprosate that has been optimized for improved pharmacokinetic properties and gastrointestinal tolerability. Chronic toxicology studies required for the advancement of ALZ-801 to Phase 3 have been completed, including the nonclinical safety characterization of ALZ-801, and the safety bridge to the extensive nonclinical toxicology and safety data for tramiprosate. […] See Hey et al., Clinical Pharmacokinetics and Safety of ALZ-801, a Novel Prodrug of Tramiprosate in Development for the Treatment of Alzheimer's Disease. Clin Pharmacokinetics 2018; 315-333 and Kocis et al., Elucidating the Abeta42 Anti-Aggregation Mechanism of Action of Tramiprosate in Alzheimer's Disease: Integrating Molecular Analytical Methods. Pharmacokinetic and Clinical Data. CNS Drugs 2017; 31:495-509. […] Both ALZ-801 and tramiprosate have consistent elimination half-life in plasma across species following repeated oral doses of ALZ-801, indicating no potential for accumulation after chronic dosing. Following conversion of ALZ-801 to tramiprosate, tramiprosate is consistently metabolized in vivo into a single major metabolite, 3-sulfopropanoic acid (3-SPA), in humans, mice, rats, dogs and minipigs.

[3] = 100:1 excess ratio compound:protein
[4] = 1000:1 excess ratio compound:protein

T1 sequence (P05067 672-713 limits assumed): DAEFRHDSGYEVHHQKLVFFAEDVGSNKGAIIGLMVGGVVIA

Structure (SMILES) | Safety profile (in words) ([1]; Phase 3 trials and safety extension, exposures of up to 2.5 years) | Effect on cognition (in words) ([1]; subgroup analysis of subjects with the ε4 allele of APOE (APOE4)) | Presence of Aβ42 Decamer [2, 3] | Presence of Aβ42 Dimer [2, 3] | Presence of Aβ42 Hexamer [2, 3] | Presence of Aβ42 Pentamer [2, 3] | Presence of Aβ42 Tetramer [2, 3] | Presence of Aβ42 Trimer [2, 3] | Presence of Aβ42 Decamer [2, 4] | Presence of Aβ42 Dimer [2, 4] | Presence of Aβ42 Hexamer [2, 4] | Presence of Aβ42 Pentamer [2, 4] | Presence of Aβ42 Tetramer [2, 4] | Presence of Aβ42 Trimer [2, 4] | Inhibition of formation of Aβ42 oligomers (in words) ([2]; 24 hours incubation, 1,000-fold excess) | NOAEL at 1 month (in vivo) [mg/kg] | NOAEL at 6 month (in vivo) [mg/kg] | Tolerability (in words) (in vivo)
NCCCS(=O)(=O)O [Tramiprosate, 3-amino-1-propanesulfonic acid, reference compound] | favorable safety profile | positive and clinically meaningful benefit on cognition | N | N | Y | Y | Y | Y | N | N | N | N | N | N | complete inhibition of formation of Aβ42 oligomers |  |  | 
CC(C)[C@H](N)C(=O)NCCCS(=O)(=O)O [ALZ-801] |  |  |  |  |  |  |  |  |  |  |  |  |  |  |  | 2000 | 1500 | well tolerated
